In patent publication US20050004193A1, “Pharmaceutical combination for the prevention or treatment of cardiovascular, cardiopulmonary, pulmonary, or renal diseases” (Boehringer Ingelheim International GmbH, priority 2003, published 2005):
“And” between values parts separate entries of the source, which are not always exact repeats. Equal values may be shown once. One block for each compound: values may come before it.

Columns and labels:
[1] = target: T1, fusion protein of ligand binding domain of human PPARgamma2 transcription factor and yeast GAL4 DNA binding domain (Homo sapiens, UniProt P37231); test: Luciferase activity in stably transformed PPARgamma reporter cell line (CHO-K1 clone 11); type: cell-based
T1 construct: codes for amino acids 205-505 of the human PPARgamma2 transcription factor; expressed in transfected cells
T1 sequence (P37231 205-505): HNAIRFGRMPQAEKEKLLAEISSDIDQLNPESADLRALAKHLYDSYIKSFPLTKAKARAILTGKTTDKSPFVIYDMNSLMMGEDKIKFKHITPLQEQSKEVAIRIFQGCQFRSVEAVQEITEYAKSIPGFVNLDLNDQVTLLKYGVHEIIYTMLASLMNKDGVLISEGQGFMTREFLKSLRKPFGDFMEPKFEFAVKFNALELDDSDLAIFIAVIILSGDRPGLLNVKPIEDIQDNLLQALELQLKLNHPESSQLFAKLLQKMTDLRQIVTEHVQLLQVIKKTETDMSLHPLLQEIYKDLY

[2] = target: T2, human PPARgamma-ligand binding domain (LBD) (Homo sapiens, UniProt P37231); test: SPA assay: displacement of 3H-labeled rosiglitazone from PPARgamma-LBD; details: for displacement of the radioactive rosiglitazone from the binding pocket: very large excesses of test substance; for MW (SPA signal, bound 3H-rosiglitazone): NSB 217, Bmax 911
T2 sequence (P37231 205-505): T1 sequence (P37231 205-505)
T2 sequence (P19793 220-461 partner limits assumed): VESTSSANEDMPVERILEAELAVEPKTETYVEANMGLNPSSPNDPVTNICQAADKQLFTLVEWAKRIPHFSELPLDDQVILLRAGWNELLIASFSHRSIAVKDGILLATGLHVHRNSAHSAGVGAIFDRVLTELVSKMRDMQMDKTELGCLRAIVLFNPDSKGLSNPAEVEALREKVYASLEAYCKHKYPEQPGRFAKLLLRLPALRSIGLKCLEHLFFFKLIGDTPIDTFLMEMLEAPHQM
Procedure: Protein containing the human PPARgamma-ligand binding domain (LBD) is prepared as a GST fusion protein in E. coli and purified by affinity chromatography. To do this, a DNA section which codes for the amino acids 205-505 of the human PPARgamma2 transcription factor (cf. Genbank entry U79012) is subcloned via the additionally inserted restriction cutting sites BamH I and Xho I into the expression vector pGEX4T-I (Amersham) and the sequence of the section is monitored. […] The bacteria are pelleted after the induction and frozen in batches in PBS, pH 7.4. After opening up in a French Press, the dissolved GST-PPARgamma-LBD-fusion protein is purified using a GSTrap column (Pharmacia). Elution is carried out by the addition of 20 mM reduced glutathione. The GST-PPARgamma-LBD-protein fractions are desalinated using a HiTrap desalting column (Pharmacia) and the protein concentration is determined using a standard assay. Protein containing the human RXRalpha ligand binding domain (LBD) is prepared as a His tag fusion protein in E. coli and purified by affinity chromatography. To do this, a DNA section which codes for the amino acids 220-461 of the human RXRalpha transcription factor (cf. Genbank entry NM_002957, nt 729-1457) is subcloned via the additionally introduced restriction cutting sites BamH I and Not I into the expression vector pET28c (Novagen) and the sequence of the section is monitored. The fusion protein is expressed in the E. […] The bacteria are pelleted after the expression and frozen in batches in PBS, pH 7.4. After opening up in a French Press, the dissolved His-RXRalpha-LBD-fusion protein is purified using a HiTrap chelating column (Pharmacia). Elution is carried out using a 500 mM imidazole step. The His-RXRalpha-LBD protein fractions are desalinated using a HiTrap desalting column (Pharmacia) and the protein concentration is determined using a standard assay. A description of the SPA assay format can be found in R. Mukherjee et al., J Steroid Biochem Mol Biol (2002) 81:217-225.

[3] = target: T3, human PPARgamma-ligand binding domain (LBD) (Homo sapiens, UniProt P37231); test: AlphaScreen: recruiting of CBP LXXLL peptide by GST-PPARgamma-LBD; type: biochemical; details: for direct activation of the PPARgamma-LBD / recruiting of the LXXLL peptide: concentrations of up to 50 μM
T3 construct: codes for the amino acids 205-505 of the human PPARgamma2 transcription factor; made in house; host or cells: E. coli BL21(DE3), vector pGEX4T-1
T3 sequence (P37231 205-505): T1 sequence (P37231 205-505)
Procedure: Protein containing the human PPARgamma-ligand binding domain (LBD) is prepared as a GST fusion protein in E. coli and purified by affinity chromatography. […] The fusion protein is expressed in the E. coli strain BL21(DE3) recommended for pGEX vectors after induction with 0.2 mM IPTG for 4 hours at 25° C. The bacteria are pelleted after the induction and frozen in batches in PBS, pH 7.4. After opening up in a French Press, the dissolved GST-PPARgamma-LBD-fusion protein is purified using a GSTrap column (Pharmacia). Elution is carried out by the addition of 20 mM reduced glutathione. The GST-PPARgamma-LBD-protein fractions are desalinated using a HiTrap desalting column (Pharmacia) and the protein concentration is determined using a standard assay.
The assay buffer consists of 25 mM Hepes pH7.4, 100 mM NaCl, 1 mM DTT, 0.1% Tween-20, and 0.1% BSA. […] The final DMSO concentration in the assay is 1% (v/v). A 1% DMSO solution is used as the background control (NSB). The measurement is done using a Packard fusion measuring device.

[4] = Dissolution of active substances from Tablet 3; type: physicochemical; details: Tablet 3, three batches
Description: This combination of active substances and excipients is then compressed with a suitable tablet press (e.g., Korsch EKO or Fette P1200) to form tablets. […]

MW (luciferase activity) ([1]; conc. 3.00E-07 M, 24 hours): 760 RLU | MW (AlphaScreen signal) ([3]; conc. 3.00E-06 M): 720
SMILES: CCCc1nc2c(C)cc(-c3nc4ccccc4n3C)cc2n1Cc1ccc(-c2ccccc2C(=O)O)cc1 [Telmisartan, 4′-[2-n-propyl-4-methyl-6-(1-methylbenzimidazol-2-yl)benzimidazol-1-ylmethyl]biphenyl-2-carboxylic acid]
activation of the PPARgamma pathway in the PPARgamma reporter cell line [1]: particularly potent activation of the PPARgamma pathway | displacement of the radioactive rosiglitazone from the binding pocket [2]: no concentration-dependent displacement of the radioactive rosiglitazone | direct activation of the PPARgamma-LBD / recruiting of the LXXLL peptide [3]: does not result in any direct activation of the PPARgamma-LBD

MW (SPA signal, bound 3H-rosiglitazone) ([2]; conc. 1.00E-04 M): 510 | MW (SPA signal, bound 3H-rosiglitazone) ([2]; conc. 3.00E-07 M): 810
SMILES: CCCCC1=NC2(CCCC2)C(=O)N1Cc1ccc(-c2ccccc2-c2nnn[nH]2)cc1 [Irbesartan]
displacement of the radioactive rosiglitazone from the binding pocket [2]: no concentration-dependent displacement of the radioactive rosiglitazone | direct activation of the PPARgamma-LBD / recruiting of the LXXLL peptide [3]: does not result in any direct activation of the PPARgamma-LBD

SMILES: NS(=O)(=O)c1cc2c(cc1Cl)NCNS2(=O)=O [hydrochlorothiazide]
dissolution of hydrochlorothiazide from tablets ([4]; 900 mL of 0.1 M HCl, 100 rpm, 30 minutes): 69±6.3% and 72±2.1% and 78±1.8%

dissolution of telmisartan sodium salt from tablets ([4]; 900 mL of 0.1 M phosphate buffer, pH 7.5, 30 minutes stirring, 75 rpm): 92±1.5% and 96±1.8% and 100±1.0%
SMILES: CCCc1nc2c(C)cc(-c3nc4ccccc4n3C)cc2n1Cc1ccc(-c2ccccc2C(=O)[O-])cc1.[Na+] [telmisartan sodium salt]

SMILES: CCCCc1nc(Cl)c(CO)n1Cc1ccc(-c2ccccc2-c2nn[nH]n2)cc1 [Losartan]
displacement of the radioactive rosiglitazone from the binding pocket [2]: no concentration-dependent displacement of the radioactive rosiglitazone | direct activation of the PPARgamma-LBD / recruiting of the LXXLL peptide [3]: does not result in any direct activation of the PPARgamma-LBD
